What all share (type): biochemical
One assay addresses CDK7/CyclinH/MAT1 (Homo sapiens (Human), UniProt P50613). Nature of the assay: CDK7/CyclinH/MAT1 kinase inhibitory activity (Caliper mobility shift).
The target in a further assay is CDK2/CyclinE1 (Homo sapiens (Human), UniProt P24941). Nature of the assay: CDK2/CyclinE1 kinase inhibitory activity (Caliper mobility shift). As to conditions: read-out: CDK2/Cyclin El IC50.
The target of a further assay is CDK4/Cyclin D1 (Homo sapiens (Human), UniProt P11802). Nature of the assay: CDK4/CyclinD1 kinase inhibitory activity (Caliper mobility shift).
Chain of CDK4/Cyclin D1 (P11802 whole entry): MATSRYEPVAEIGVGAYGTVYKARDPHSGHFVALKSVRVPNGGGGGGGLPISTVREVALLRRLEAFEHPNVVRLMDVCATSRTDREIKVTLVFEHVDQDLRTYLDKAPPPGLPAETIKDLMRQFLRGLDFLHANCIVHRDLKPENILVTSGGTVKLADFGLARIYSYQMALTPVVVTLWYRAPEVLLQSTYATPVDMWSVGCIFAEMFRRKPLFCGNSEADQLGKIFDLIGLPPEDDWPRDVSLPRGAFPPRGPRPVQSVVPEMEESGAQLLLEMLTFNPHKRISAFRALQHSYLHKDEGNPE
Chain of CDK4/Cyclin D1 (P24385 whole entry partner): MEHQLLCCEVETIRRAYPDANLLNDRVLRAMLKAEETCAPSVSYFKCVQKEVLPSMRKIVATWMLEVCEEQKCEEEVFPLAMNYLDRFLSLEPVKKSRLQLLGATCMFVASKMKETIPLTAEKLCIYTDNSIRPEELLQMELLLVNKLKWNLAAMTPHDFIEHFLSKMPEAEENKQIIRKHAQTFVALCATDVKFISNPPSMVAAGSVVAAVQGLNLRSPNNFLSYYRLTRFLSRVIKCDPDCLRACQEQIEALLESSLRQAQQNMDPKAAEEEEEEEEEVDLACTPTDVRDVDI
The target in another assay is CDK1/CyclinB (Homo sapiens (Human), UniProt P06493). The assay is described as follows: CDK1/CyclinB kinase inhibitory activity (Caliper mobility shift). The settings on record: read-out: CDK1/Cyclin B1 IC50.
Chain of CDK1/CyclinB (P06493 whole entry): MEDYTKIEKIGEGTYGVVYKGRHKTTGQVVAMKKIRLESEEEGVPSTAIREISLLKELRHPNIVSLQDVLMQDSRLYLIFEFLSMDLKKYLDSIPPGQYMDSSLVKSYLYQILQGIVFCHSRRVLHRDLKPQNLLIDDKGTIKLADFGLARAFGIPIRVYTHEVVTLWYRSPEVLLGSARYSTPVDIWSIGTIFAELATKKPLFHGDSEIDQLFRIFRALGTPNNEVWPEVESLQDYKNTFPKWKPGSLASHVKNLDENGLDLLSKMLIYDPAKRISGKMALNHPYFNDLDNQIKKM
Chain of CDK1/CyclinB (P14635 whole entry partner): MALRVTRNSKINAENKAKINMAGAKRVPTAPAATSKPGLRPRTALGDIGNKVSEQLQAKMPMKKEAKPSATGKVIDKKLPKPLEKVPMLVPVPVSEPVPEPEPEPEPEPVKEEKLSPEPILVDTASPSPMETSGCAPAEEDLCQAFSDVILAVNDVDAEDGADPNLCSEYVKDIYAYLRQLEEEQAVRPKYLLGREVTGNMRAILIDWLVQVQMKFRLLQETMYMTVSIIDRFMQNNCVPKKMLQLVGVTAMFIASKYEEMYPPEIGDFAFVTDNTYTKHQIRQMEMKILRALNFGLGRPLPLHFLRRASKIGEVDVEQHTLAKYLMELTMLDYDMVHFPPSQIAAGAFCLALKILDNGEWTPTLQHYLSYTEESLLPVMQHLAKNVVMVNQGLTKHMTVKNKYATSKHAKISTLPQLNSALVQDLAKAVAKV
The next assay deals with CDK9/CyclinT1 (Homo sapiens (Human), UniProt P50750). The assay is described as follows: CDK9/CyclinT1 kinase inhibitory activity (Caliper mobility shift). The settings on record: read-out: CDK9/Cyclin T1 IC50.
Chain of CDK9/CyclinT1 (P50750 whole entry): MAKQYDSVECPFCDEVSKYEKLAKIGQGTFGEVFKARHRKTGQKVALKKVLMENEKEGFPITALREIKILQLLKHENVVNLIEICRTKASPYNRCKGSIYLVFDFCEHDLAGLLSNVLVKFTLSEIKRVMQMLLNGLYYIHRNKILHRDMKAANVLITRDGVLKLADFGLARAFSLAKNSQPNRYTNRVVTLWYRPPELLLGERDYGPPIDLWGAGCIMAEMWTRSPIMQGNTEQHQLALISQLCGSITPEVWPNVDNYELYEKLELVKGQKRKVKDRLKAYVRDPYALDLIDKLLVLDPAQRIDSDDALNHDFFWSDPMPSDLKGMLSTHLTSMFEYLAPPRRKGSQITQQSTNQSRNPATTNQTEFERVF
Chain of CDK9/CyclinT1 (O60563 whole entry partner): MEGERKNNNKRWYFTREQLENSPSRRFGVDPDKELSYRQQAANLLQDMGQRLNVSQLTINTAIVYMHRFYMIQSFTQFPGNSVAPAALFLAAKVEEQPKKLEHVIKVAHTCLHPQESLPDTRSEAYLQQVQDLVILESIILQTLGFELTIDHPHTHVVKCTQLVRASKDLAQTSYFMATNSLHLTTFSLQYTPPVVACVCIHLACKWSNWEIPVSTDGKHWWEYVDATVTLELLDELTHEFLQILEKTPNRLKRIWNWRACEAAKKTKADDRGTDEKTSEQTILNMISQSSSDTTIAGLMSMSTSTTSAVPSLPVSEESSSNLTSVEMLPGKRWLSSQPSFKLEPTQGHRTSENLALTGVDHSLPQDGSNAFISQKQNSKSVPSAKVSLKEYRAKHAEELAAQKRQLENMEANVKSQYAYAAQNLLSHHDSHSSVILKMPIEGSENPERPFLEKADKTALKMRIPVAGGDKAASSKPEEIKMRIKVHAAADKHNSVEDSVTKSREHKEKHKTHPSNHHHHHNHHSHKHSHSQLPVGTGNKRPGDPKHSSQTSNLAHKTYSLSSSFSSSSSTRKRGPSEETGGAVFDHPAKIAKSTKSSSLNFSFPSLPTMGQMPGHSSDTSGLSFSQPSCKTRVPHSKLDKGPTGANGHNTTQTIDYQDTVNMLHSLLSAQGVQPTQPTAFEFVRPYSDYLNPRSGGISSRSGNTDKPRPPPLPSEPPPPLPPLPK
The target of another assay is CDK6/CyclinD1 (Homo sapiens (Human), UniProt Q00534). Nature of the assay: CDK6/CyclinD1 kinase inhibitory activity (Caliper mobility shift). As to conditions: read-out: CDK6/Cyclin D1 IC50.
Chain of CDK6/CyclinD1 (Q00534 whole entry): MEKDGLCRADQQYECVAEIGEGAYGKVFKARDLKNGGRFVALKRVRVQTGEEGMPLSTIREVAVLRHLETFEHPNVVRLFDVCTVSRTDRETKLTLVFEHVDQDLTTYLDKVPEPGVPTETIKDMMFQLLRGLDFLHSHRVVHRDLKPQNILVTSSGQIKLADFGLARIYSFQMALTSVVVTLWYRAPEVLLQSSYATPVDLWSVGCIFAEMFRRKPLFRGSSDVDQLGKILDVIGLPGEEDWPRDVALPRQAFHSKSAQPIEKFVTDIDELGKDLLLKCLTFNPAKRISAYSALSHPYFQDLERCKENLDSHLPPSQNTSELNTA
Chain of CDK6/CyclinD1 (P24385 whole entry partner): as the sequence (P24385 whole entry partner) above

Chain of CDK7/CyclinH/MAT1 (P50613 whole entry): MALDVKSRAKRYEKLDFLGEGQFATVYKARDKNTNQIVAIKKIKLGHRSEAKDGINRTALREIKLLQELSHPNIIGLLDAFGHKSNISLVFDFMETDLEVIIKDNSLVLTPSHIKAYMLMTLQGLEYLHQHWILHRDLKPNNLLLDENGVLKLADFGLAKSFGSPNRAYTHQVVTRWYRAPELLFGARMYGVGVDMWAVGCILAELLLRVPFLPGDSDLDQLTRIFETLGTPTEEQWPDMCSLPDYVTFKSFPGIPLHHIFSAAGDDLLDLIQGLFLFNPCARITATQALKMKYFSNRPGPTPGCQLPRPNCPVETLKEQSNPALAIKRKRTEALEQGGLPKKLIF
Chain of CDK7/CyclinH/MAT1 (P51946 whole entry partner): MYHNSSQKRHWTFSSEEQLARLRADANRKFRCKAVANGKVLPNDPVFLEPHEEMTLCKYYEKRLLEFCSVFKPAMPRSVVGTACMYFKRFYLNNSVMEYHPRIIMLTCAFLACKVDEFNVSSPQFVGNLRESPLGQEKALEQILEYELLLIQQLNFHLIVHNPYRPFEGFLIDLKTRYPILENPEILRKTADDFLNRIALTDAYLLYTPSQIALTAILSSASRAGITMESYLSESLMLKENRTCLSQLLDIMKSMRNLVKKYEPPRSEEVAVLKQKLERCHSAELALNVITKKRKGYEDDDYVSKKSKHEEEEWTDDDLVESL
Chain of CDK7/CyclinH/MAT1 (P51948 whole entry partner): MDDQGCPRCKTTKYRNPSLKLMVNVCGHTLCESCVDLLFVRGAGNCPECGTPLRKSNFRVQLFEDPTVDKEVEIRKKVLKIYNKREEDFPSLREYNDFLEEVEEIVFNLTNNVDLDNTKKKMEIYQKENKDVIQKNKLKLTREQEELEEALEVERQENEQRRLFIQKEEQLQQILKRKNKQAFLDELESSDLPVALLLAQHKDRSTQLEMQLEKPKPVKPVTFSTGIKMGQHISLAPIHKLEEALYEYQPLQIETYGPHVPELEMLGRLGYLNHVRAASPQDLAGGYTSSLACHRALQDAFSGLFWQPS

Consider `N#Cc1cnc(Nc2ccc(S(=O)(=O)NC3CCC3)cc2)nc1OC1CCC[C@H]1O` (mixture of isomers) [Example 25], for which the IC50 at CDK7/CyclinH/MAT1 is no less than 1000 nM; at CDK2/CyclinE1, less than 10 nM; on CDK4/Cyclin D1, 100 to 1000 nM; at CDK1/CyclinB, 10 to 100 nM; at CDK9/CyclinT1, 100 to 1000 nM; at CDK6/CyclinD1, 10 to 100 nM.

As for `CNS(=O)(=O)c1ccc(Nc2ncc(C#N)c(OC3CCC[C@H]3O)n2)cc1` (mixture of isomers) [Example 26], the IC50 on CDK7/CyclinH/MAT1 is no less than 1000 nM; at CDK2/CyclinE1 it was less than 10 nM; on CDK4/Cyclin D1 it was 100 to 1000 nM; on CDK1/CyclinB, 100 to 1000 nM; on CDK9/CyclinT1 it was no less than 1000 nM; on CDK6/CyclinD1, 100 to 1000 nM.

On to `CC(C)NS(=O)(=O)c1ccc(Nc2ncc(C#N)c(OC3CCC[C@H]3O)n2)cc1` (mixture of isomers) [Example 27], for which the IC50 on CDK7/CyclinH/MAT1 was no less than 1000 nM; at CDK2/CyclinE1, less than 10 nM; on CDK4/Cyclin D1 it was 100 to 1000 nM; on CDK1/CyclinB, 10 to 100 nM; at CDK9/CyclinT1 it was 100 to 1000 nM; at CDK6/CyclinD1, 100 to 1000 nM.

For `C[C@]1(O)CCC[C@H]1Oc1nc(NC2CCN(S(C)(=O)=O)CC2)ncc1C#N` (relative stereo) [Example 3b, cis-4-((2-hydroxy-2-methylcyclopentyl)oxy)-2-((1-(methylsulfonyl)piperidin-4-yl)amino)pyrimidine-5-carbonitrile], the IC50 at CDK7/CyclinH/MAT1 is 10 to 100 nM; on CDK2/CyclinE1 it was less than 10 nM; on CDK4/Cyclin D1, less than 10 nM; at CDK1/CyclinB, 10 to 100 nM; on CDK9/CyclinT1, 100 to 1000 nM; on CDK6/CyclinD1, less than 10 nM.

In the case of `C[C@]1(O)CC(F)(F)C[C@H]1Oc1nc(NC2CCN(S(C)(=O)=O)CC2)ncc1C#N` (relative stereo) [Example 4a, cis-4-((4,4-difluoro-2-hydroxy-2-methylcyclopentyl)oxy)-2-((1-(methylsulfonyl)piperidin-4-yl)amino)pyrimidine-5-carbonitrile], the IC50 on CDK7/CyclinH/MAT1 is 10 to 100 nM; at CDK2/CyclinE1, less than 10 nM; at CDK4/Cyclin D1, 10 to 100 nM; at CDK1/CyclinB, 10 to 100 nM; at CDK9/CyclinT1, 100 to 1000 nM; on CDK6/CyclinD1, less than 10 nM.

With `Cn1cc(S(=O)(=O)N2CCC(Nc3ncc(C#N)c(O[C@@H]4CCC(F)(F)C[C@]4(C)O)n3)CC2)cn1` (relative stereo) [Example 7a, cis-4-((4,4-difluoro-2-hydroxy-2-methylcyclohexyl)oxy)-2-((1-((1-methyl-1H-pyrazol-4-yl)sulfonyl)piperidin-4-yl)amino)pyrimidine-5-carbonitrile], the IC50 is 10 to 100 nM at CDK7/CyclinH/MAT1; less than 10 nM at CDK2/CyclinE1; less than 10 nM at CDK4/Cyclin D1; less than 10 nM on CDK1/CyclinB; 100 to 1000 nM on CDK9/CyclinT1; less than 10 nM at CDK6/CyclinD1.

On to `C[C@]1(O)COC[C@H]1Oc1nc(NC2CCN(S(C)(=O)=O)CC2)ncc1C(F)(F)F` (relative stereo) [Example 104a, cis-3-methyl-4-((2-((1-(methylsulfonyl)piperidin-4-yl)amino)-5-(trifluoromethyl)pyrimidin-4-yl)oxy)tetrahydrofuran-3-ol], for which the IC50 on CDK7/CyclinH/MAT1 is 10 to 100 nM; on CDK2/CyclinE1 it was less than 10 nM; at CDK4/Cyclin D1, 10 to 100 nM; at CDK1/CyclinB it was 10 to 100 nM; on CDK9/CyclinT1 it was 100 to 1000 nM; on CDK6/CyclinD1, 10 to 100 nM.

With `N#Cc1cnc(Nc2ccc(S(N)(=O)=O)cc2)nc1O[C@@H]1CCCC[C@@H]1O` (single isomer, unassigned) [Example 2a, cis-4-((5-cyano-4-((2-hydroxycyclohexyl)oxy)pyrimidin-2-yl)amino)benzenesulfonamide], the IC50 was no less than 1000 nM on CDK7/CyclinH/MAT1; less than 10 nM at CDK2/CyclinE1; 10 to 100 nM at CDK4/Cyclin D1; 10 to 100 nM on CDK1/CyclinB; 100 to 1000 nM at CDK9/CyclinT1; 10 to 100 nM at CDK6/CyclinD1.

`N#Cc1cnc(Nc2ccc(S(N)(=O)=O)cc2)nc1OC1CCCC1O` (single isomer, unassigned) [Example 20a]: the IC50 is no less than 1000 nM at CDK7/CyclinH/MAT1; less than 10 nM at CDK2/CyclinE1; 100 to 1000 nM on CDK4/Cyclin D1; 100 to 1000 nM at CDK1/CyclinB; 100 to 1000 nM at CDK9/CyclinT1; 100 to 1000 nM at CDK6/CyclinD1.

For the compound `N#Cc1cnc(Nc2ccc(S(N)(=O)=O)cc2)nc1OC1CCCC1O` (single isomer, unassigned) [Example 20b], the IC50 is no less than 1000 nM at CDK7/CyclinH/MAT1; 10 to 100 nM at CDK2/CyclinE1; 100 to 1000 nM on CDK4/Cyclin D1; 100 to 1000 nM at CDK1/CyclinB; 100 to 1000 nM at CDK9/CyclinT1; 100 to 1000 nM on CDK6/CyclinD1.

In the case of `N#Cc1cnc(Nc2ccc(S(N)(=O)=O)cc2)nc1OC1CCCCCC1O` (single isomer, unassigned) [Example 22a], the IC50 on CDK7/CyclinH/MAT1 was no less than 1000 nM; at CDK2/CyclinE1, less than 10 nM; at CDK4/Cyclin D1 it was 10 to 100 nM; on CDK1/CyclinB, 10 to 100 nM; on CDK9/CyclinT1, 100 to 1000 nM; on CDK6/CyclinD1, 10 to 100 nM.

As to `CC1(O)CCCC1Oc1nc(Nc2ccc(S(N)(=O)=O)cc2)ncc1C#N` (single isomer, unassigned) [Example 23a], the IC50 at CDK7/CyclinH/MAT1 is 100 to 1000 nM; at CDK2/CyclinE1 it was less than 10 nM; on CDK4/Cyclin D1 it was 10 to 100 nM; on CDK1/CyclinB it was less than 10 nM; at CDK9/CyclinT1, 10 to 100 nM; on CDK6/CyclinD1, 10 to 100 nM.

Take `CC1(O)CCCCC1Oc1nc(Nc2ccc(S(N)(=O)=O)cc2)ncc1C#N` (single isomer, unassigned) [Example 24a]: the IC50 on CDK7/CyclinH/MAT1, at CDK2/CyclinE1, on CDK4/Cyclin D1, on CDK1/CyclinB, at CDK9/CyclinT1 and on CDK6/CyclinD1 was less than 10 nM each time.

In the case of `N#Cc1cnc(Nc2ccc(S(=O)(=O)NC3CC(F)C3)cc2)nc1OC1CCCCC1O` (single isomer, unassigned) [Example 31a], the IC50 was no less than 1000 nM at CDK7/CyclinH/MAT1; less than 10 nM at CDK2/CyclinE1; 10 to 100 nM on CDK4/Cyclin D1; 10 to 100 nM at CDK1/CyclinB; 100 to 1000 nM on CDK9/CyclinT1; 100 to 1000 nM at CDK6/CyclinD1.

Turning to `[2H]C([2H])([2H])NS(=O)(=O)c1ccc(Nc2ncc(C#N)c(OC3CCCOCC3)n2)cc1` (single isomer, unassigned) [Example 33a], the IC50 on CDK7/CyclinH/MAT1 was no less than 1000 nM; on CDK2/CyclinE1, less than 10 nM; on CDK4/Cyclin D1, 10 to 100 nM; at CDK1/CyclinB, 10 to 100 nM; at CDK9/CyclinT1 it was 100 to 1000 nM; at CDK6/CyclinD1, 100 to 1000 nM.

For `CNS(=O)(=O)c1ccc(Nc2ncc(C#N)c(OC3CCCC3(C)O)n2)cc1` (single isomer, unassigned) [Example 34a], the IC50 is 10 to 100 nM at CDK7/CyclinH/MAT1; less than 10 nM at CDK2/CyclinE1; 10 to 100 nM at CDK4/Cyclin D1; less than 10 nM at CDK1/CyclinB; 100 to 1000 nM at CDK9/CyclinT1; 10 to 100 nM on CDK6/CyclinD1.

For `CC1(O)CCCC1Oc1nc(NC2CCN(S(=O)(=O)CC(F)(F)F)CC2)ncc1C#N` (single isomer, unassigned) [Example 43b], the IC50 at CDK7/CyclinH/MAT1 is no less than 1000 nM; on CDK2/CyclinE1 it was 10 to 100 nM; on CDK4/Cyclin D1, 10 to 100 nM; at CDK6/CyclinD1 it was 10 to 100 nM.

For `Cn1cnc(S(=O)(=O)N2CCC(Nc3ncc(C#N)c(OC4CCCC4(C)O)n3)CC2)c1` (single isomer, unassigned) [Example 50b], the IC50 at CDK7/CyclinH/MAT1 was no less than 1000 nM; at CDK2/CyclinE1, less than 10 nM; at CDK4/Cyclin D1, 10 to 100 nM; on CDK6/CyclinD1, 10 to 100 nM.

For `Cn1cnc(S(=O)(=O)N2CCC(Nc3ncc(C#N)c(OC4CCCC4(C)O)n3)CC2)n1` (single isomer, unassigned) [Example 51a], the IC50 on CDK7/CyclinH/MAT1 was 100 to 1000 nM; at CDK2/CyclinE1 it was less than 10 nM; at CDK4/Cyclin D1 it was 10 to 100 nM; on CDK6/CyclinD1 it was 10 to 100 nM.

Take `Cn1cnc(S(=O)(=O)N2CCC(Nc3ncc(C#N)c(OC4CCCC4(C)O)n3)CC2)n1` (single isomer, unassigned) [Example 51b]: the IC50 was no less than 1000 nM at CDK7/CyclinH/MAT1, 10 to 100 nM on CDK2/CyclinE1, 100 to 1000 nM on CDK4/Cyclin D1 and 100 to 1000 nM on CDK6/CyclinD1.

On to `[2H]C([2H])([2H])NS(=O)(=O)c1ccc(Nc2ncc(C(F)(F)F)c(OC3CCOCCC3O)n2)cc1` (single isomer, unassigned) [Example 102a, 4-((4-((5-hydroxyoxepan-4-yl)oxy)-5-(trifluoromethyl)pyrimidin-2-yl)amino)-N-(methyl-d3)benzenesulfonamide], for which the IC50 at CDK7/CyclinH/MAT1 was no less than 1000 nM; on CDK2/CyclinE1 it was less than 10 nM; on CDK4/Cyclin D1, no less than 1000 nM; at CDK1/CyclinB, 100 to 1000 nM; on CDK6/CyclinD1 it was no less than 1000 nM.

With `Cn1cc(S(=O)(=O)N2CCC(Nc3ncc(C(F)(F)F)c(OC4CCOCC4(C)O)n3)CC2)cn1` (single isomer, unassigned) [Example 125b], the IC50 lay in the range of 100 to 1000 nM at CDK7/CyclinH/MAT1, 10 to 100 nM on CDK2/CyclinE1, 100 to 1000 nM at CDK4/Cyclin D1 and 100 to 1000 nM on CDK6/CyclinD1.

Consider `CO[C@H]1C[C@](C)(COc2nc(NC3CCN(S(=O)(=O)c4cnn(C)c4)CC3)ncc2C#N)C1` [Example 64a], for which the IC50 at CDK7/CyclinH/MAT1 was 100 to 1000 nM; on CDK2/CyclinE1, less than 10 nM; on CDK4/Cyclin D1, 10 to 100 nM; at CDK6/CyclinD1, 10 to 100 nM.

With `N#Cc1cnc(Nc2ccc(S(N)(=O)=O)cc2)nc1-c1cccc(F)c1` [Example 95], the IC50 on CDK7/CyclinH/MAT1 is no less than 1000 nM; on CDK2/CyclinE1 it was 10 to 100 nM; at CDK4/Cyclin D1 it was 100 to 1000 nM; on CDK1/CyclinB it was 10 to 100 nM; at CDK6/CyclinD1 it was no less than 1000 nM.

Take `CNc1cccc(-c2nc(Nc3ccc(S(N)(=O)=O)cc3)ncc2C#N)c1` [Example 97]: the IC50 is no less than 1000 nM on CDK7/CyclinH/MAT1; 10 to 100 nM on CDK2/CyclinE1; 100 to 1000 nM on CDK4/Cyclin D1; 100 to 1000 nM at CDK1/CyclinB; no less than 1000 nM on CDK6/CyclinD1.
